The record followed here is patent US20150283120A1, “ANTIBIOTIC METHODS AND COMPOSITIONS FOR BACTERIA INFECTIONS” (THE UNIVERSITY OF CHICAGO, priority 2012, published 2015).

What all share (type): cell-based, Staphylococcus aureus
Test [1] deals with MRSA strain USA300 Pvra-lux. To be noted: compound 10 μM + oxacillin 2 μg/mL; for RG avg (relative growth): ratio of OD600 to oxacillin alone, four runs. Here is the method:
(§1) In the secondary screen each microtiter plate contained either cells in TSB alone (16 replicates), cells with oxacillin (2 μg/mL, 31 replicates), or cells with test compound and oxacillin (2 μg/mL, 49 wells). Each compound was assayed in four separate biological replicates.
(§2) All compounds classified in the primary screen as synergists that were vraSR-stimulating or -repressing (as shown in Table 8) were screened in a secondary assay for their effects on both growth and Pvra::lux induction by oxacillin. […] Each compound was tested four separate times at 10 μM in the presence of oxacillin (2 μg/mL) and luminescence was measured every 15 minutes. Relative growth (RG) and relative luminescence (RL) was calculated as the ratio between the OD600 or max LU value in the presence of compound and oxacillin over the average from pooled control values obtained from the same plate. […] Compounds that produced an average RG (ratio of the OD600 of the culture grown with test compound combined with oxacillin to that of oxacillin alone) of <0.8 were classified as oxacillin synergists or potentiators. The relative luminescence (RL) was the ratio of the LU produced in the presence of the test compound combined with oxacillin to that produced by oxacillin alone. Compounds were classified as “vraSR repressors” (mean RL of <0.8), “vraSR stimulators”, (mean RL>1.2), and “vraSR neutral” (mean RL between 0.80-1.2). […] In contrast, 34 compounds had no effect on growth in the presence of oxacillin (“un” in the OD600 category). Among the oxacillin potentiators, there were 2 vraSR stimulators, 3 vraSR neutral compounds and 10 vraSR repressors.

For test [2], the system named is vraSR transcription (Pvra::lux). Conditions: compound 10 μM + oxacillin 2 μg/mL; for RL avg (relative luminescence): ratio of LU to oxacillin alone, four runs. How it is done: as §1, §2
The test system of the next test is vraR transcription. The test can be described thus: Tertiary screen: qRT-PCR of vraR in strain 923. Conditions: for Effect on vraSR Transcription: With oxacillin: compound 10 μM + oxacillin 2 μg/mL; for Effect on vraSR Transcription: Compound alone: compound 10 μM, no oxacillin. (Quantitative PCR measures a nucleic acid by following its amplification.)

Structures can show the parent of a compound that is named as a salt.

As for `O=C1NCN(c2ccccc2)C12CCN(CCCC(c1ccc(F)cc1)c1ccc(F)cc1)CC2` [Fluspirilen], in test [1], the OD600 category result is “inhibited (of <0.8 were classified as oxacillin synergists or potentiators)” and the “RG avg (relative growth)” value stood at 0.47. In test [2], the “Effect on vraSR transcription” value is listed as “stimulate (“vraSR stimulators”, (mean RL>1.2))” and the “RL avg (relative luminescence)” value is reported as 0.28. Besides, the “Effect on vraSR transcription (summary)” value with vraR transcription (qRT-PCR of vraR, alone and with oxacillin) is given as “No effect”. In addition, in the test with vraR transcription (qRT-PCR of vraR), the “Effect on vraSR Transcription: With oxacillin” value (from here on “Effect … With oxacillin”) is listed as “vraR neutral” and the “Effect on vraSR Transcription: Compound alone” value (shortened to “Effect … Compound alone”) is reported as “none”. Further, in the test on vraR transcription (qRT-PCR of vraR, listed as fluspirilene), the “Effect … With oxacillin” value was “none”.

Turning to `CC/C(=C(/CC)c1ccc(O)cc1)c1ccc(O)cc1` [Diethylstilbestrol], in test [1], the OD600 category entry was “inhibited (of <0.8 were classified as oxacillin synergists or potentiators)” and the “RG avg (relative growth)” value came out at 0.41. In test [2], the “Effect on vraSR transcription” value is reported as “repress (“vraSR repressors” (mean RL of <0.8))” and the “RL avg (relative luminescence)” value is 0.26. Also, in the test on vraR transcription (qRT-PCR of vraR), the “Effect … With oxacillin” value is “super-stimulate” and the “Effect … Compound alone” value is on record as “None”. Besides, the “Effect … With oxacillin” value in the test on vraR transcription (qRT-PCR of vraR, listed as diethylstilbesterol) is listed as “enhanced oxacillin's effect on vraR transcription”.

Take `CC(=O)OCC1=C(C(=O)O)N2C(=O)[C@@H](NC(=O)Cc3cccs3)[C@H]2SC1` [Cephalothin sodium salt]: in test [1], the OD600 category entry was “inhibited (of <0.8 were classified as oxacillin synergists or potentiators)” and the “RG avg (relative growth)” value amounted to 0.45. In test [2], the “Effect on vraSR transcription” value is recorded as “neutral (“vraSR neutral” (mean RL between 0.80-1.2))” and the “RL avg (relative luminescence)” value is 0.36. Further, the “Effect … Compound alone” value with vraR transcription (qRT-PCR of vraR) is “stimulate”.

As for `CO[C@H]1C[C@H](O[C@H]2[C@H](C)[C@@H](O[C@@H]3O[C@H](C)C[C@H](N(C)C)[C@H]3O)[C@@H](C)C[C@@]3(CO3)C(=O)[C@H](C)[C@@H](O)[C@@H](C)[C@@H](C)OC(=O)[C@@H]2C)O[C@@H](C)[C@@H]1O` [Oleandomycin phosphate, (3R,5R,6S,7R,8R,11R,12S,13R,14S,15S)-14-((2S,3R,4S,6R)-4-(dimethylamino)-3-hydroxy-6-methyltetrahydro-2H-pyran-2-yloxy)-6-hydroxy-12-((2R,4S,5S,6S)-5-hydroxy-4-methoxy-6-methyltetrahydro-2H-pyran-2-yloxy)-5,7,8,11,13,15-hexamethyl-1,9-dioxaspiro[2.13]hexadecane-4,10-dione], in test [1], the OD600 category entry was “inhibited (of <0.8 were classified as oxacillin synergists or potentiators)” and the “RG avg (relative growth)” value was determined as 0.19. Moreover, in test [2], the “Effect on vraSR transcription” value is “repress (“vraSR repressors” (mean RL of <0.8))” and the “RL avg (relative luminescence)” value is recorded as 0.20. The “classification of lux screen result against qRT-PCR (true/false repressor or stimulator)” value in the test on vraR transcription (in the presence of oxacillin) is on record as “true vraSR expression repressors”. For the same molecule, the “Effect … With oxacillin” value in the test on vraR transcription (qRT-PCR of vraR) is recorded as “repress”.

Regarding `CN(C)CCn1nnnc1SCC1=C(C(=O)O)N2C(=O)[C@@H](NC(=O)Cc3csc(N)n3)[C@H]2SC1` [Cefotiam hydrochloride], in test [1], the OD600 category result is given as “inhibited (of <0.8 were classified as oxacillin synergists or potentiators)” and the “RG avg (relative growth)” value is 0.64. Besides, in test [2], the “Effect on vraSR transcription” value is recorded as “neutral (“vraSR neutral” (mean RL between 0.80-1.2))” and the “RL avg (relative luminescence)” value is reported as 0.64. In addition, the “Effect … With oxacillin” value in the test with vraR transcription (qRT-PCR of vraR, hydrochloride) is on record as “vraR activator”. Besides, in the test with vraR transcription (qRT-PCR of vraR), the “Effect … Compound alone” value is reported as “stimulate”.

As to `CCN1CCN(C(=O)N[C@@H](C(=O)N[C@@H]2C(=O)N3C(C(=O)O)=C(CSc4nnnn4C)CS[C@H]23)c2ccc(O)cc2)C(=O)C1=O` [Cefoperazone dihydrate], in test [1], the OD600 category entry is “inhibited (of <0.8 were classified as oxacillin synergists or potentiators)” and the “RG avg (relative growth)” value stood at 0.79. Besides, in test [2], the “Effect on vraSR transcription” value was “neutral (“vraSR neutral” (mean RL between 0.80-1.2))” and the “RL avg (relative luminescence)” value amounted to 0.77. For the same molecule, the “Effect … Compound alone” value in the test with vraR transcription (qRT-PCR of vraR) is “stimulate”.
